What was measured:
VPS34 = VPS34 (Homo sapiens (Human), UniProt Q8NEB9); experiment: Biochemical Assay for VPS34 (ADP-Glo kinase activity assay); conditions: 25 nM VPS34, 1 mM ATP, 1-hour incubation at 37° C.; read-out: VPS34 (Inhibition of biochemical activity of VPS34, IC50)
Protocol: Activity of VPS34 kinase was determined using an ADP-Glo kinase activity assay (Promega Corp). Assays were conducted in 384-well plates (5 μL assay volume) using 25 nM VPS34 (ThermoFisher Scientific), […] PI:3PS Lipid Kinase Substrate (Promega Corp.), and 1 mM ATP in kinase buffer. Inhibition of VPS34 was measured by adding serial diluted test compound (final assay concentration of 0.1% DMSO) followed by a 1-hour incubation at 37° C. ADP-Glo reagent was then added ([…]) followed by a 40 min incubation at rt. Kinase detection reagent was then added ([…]) and followed by a 60 min incubation at rt. Luminescence was then detected. The RLU at each compound concentration of was converted to percent inhibition using controls (i.e., reaction with no test compound and reaction with a known inhibitor) and IC50 values were calculated by fitting a four-parameter sigmoidal curve to the data using GeneData Screener software.
VPS34 Protein Sequence (Full Length with GST Tag)

PI3Kα (p110α/p85α) = PI3Kα (p110α/p85α) (Homo sapiens (Human), UniProt P42336); experiment: Lipid kinase selectivity panel (Reaction Biology); type: biochemical; conditions: 1 μM compound, single dose duplicates, 10 μM ATP; read-out: Percent inhibition relative to DMSO control, PI3Kα (p110α/p85α)
Protocol: (§1) The compounds of the present invention were tested in a standard lipid kinase selectivity panel: 16 other lipid kinases (Reaction Biology, Malvern, PA, USA), under conditions of non-disclosure, non-dissemination, and non-use. In brief, compounds (see Table 2) were tested at in single dose duplicates at 1 μM against lipid kinases, including PI3Kα, PI3Kβ, and PI3Kδ, and reactions were carried out at 10 μM ATP.

PI3K (p110α/p65α) = PI3K (p110α/p65α) (Homo sapiens (Human), UniProt P42336); experiment: Lipid kinase selectivity panel (Reaction Biology); type: biochemical; conditions: 1 μM compound, single dose duplicates, 10 μM ATP; read-out: Percent inhibition relative to DMSO control, PI3K (p110α/p65α)
Protocol: as §1

[1] = biological target: PI3K (p110α (H1047R)/p85α) (Homo sapiens (Human), UniProt P42336, H1047R); experiment: Lipid kinase selectivity panel (Reaction Biology); type: biochemical; conditions: 1 μM compound, single dose duplicates, 10 μM ATP; read-out: Percent inhibition relative to DMSO control, PI3K (p110α (H1047R)/p85α)
Protocol: as §1

PI3Kb (p110β/p85α) = PI3Kb (p110β/p85α) (Homo sapiens (Human), UniProt P42338); experiment: Lipid kinase selectivity panel (Reaction Biology); type: biochemical; conditions: 1 μM compound, single dose duplicates, 10 μM ATP; read-out: Percent inhibition relative to DMSO control, PI3Kb (p110β/p85α)
Protocol: as §1

[2] = biological target: PI3K (p110α (E545K)/p85α) (Homo sapiens (Human), UniProt P42336, E545K); experiment: Lipid kinase selectivity panel (Reaction Biology); type: biochemical; conditions: 1 μM compound, single dose duplicates, 10 μM ATP; read-out: Percent inhibition relative to DMSO control, PI3K (p110α (E545K)/p85α)
Protocol: as §1

PI3Kd (p110δ/p85α) = PI3Kd (p110δ/p85α) (Homo sapiens (Human), UniProt O00329); experiment: Lipid kinase selectivity panel (Reaction Biology); type: biochemical; conditions: 1 μM compound, single dose duplicates, 10 μM ATP; read-out: Percent inhibition relative to DMSO control, PI3Kd (p110δ/p85α)
Protocol: as §1

PI3Kg (p110γ) = PI3Kg (p110γ) (Homo sapiens (Human), UniProt P48736); experiment: Lipid kinase selectivity panel (Reaction Biology); type: biochemical; conditions: 1 μM compound, single dose duplicates, 10 μM ATP; read-out: Percent inhibition relative to DMSO control, PI3Kg (p110γ)
Protocol: as §1

[3] = biological target: PI3K (p110α (E542K)/p85α) (Homo sapiens (Human), UniProt P42336, E542K); experiment: Lipid kinase selectivity panel (Reaction Biology); type: biochemical; conditions: 1 μM compound, single dose duplicates, 10 μM ATP; read-out: Percent inhibition relative to DMSO control, PI3K (p110α (E542K)/p85α)
Protocol: as §1

PI3KC2α = PI3KC2α (Homo sapiens (Human), UniProt O00443); experiment: Lipid kinase selectivity panel (Reaction Biology); type: biochemical; conditions: 1 μM compound, single dose duplicates, 10 μM ATP; read-out: Percent inhibition relative to DMSO control, PI3KC2α
Protocol: as §1

Chain of PI3KC2α (O00443 whole entry, species assumed): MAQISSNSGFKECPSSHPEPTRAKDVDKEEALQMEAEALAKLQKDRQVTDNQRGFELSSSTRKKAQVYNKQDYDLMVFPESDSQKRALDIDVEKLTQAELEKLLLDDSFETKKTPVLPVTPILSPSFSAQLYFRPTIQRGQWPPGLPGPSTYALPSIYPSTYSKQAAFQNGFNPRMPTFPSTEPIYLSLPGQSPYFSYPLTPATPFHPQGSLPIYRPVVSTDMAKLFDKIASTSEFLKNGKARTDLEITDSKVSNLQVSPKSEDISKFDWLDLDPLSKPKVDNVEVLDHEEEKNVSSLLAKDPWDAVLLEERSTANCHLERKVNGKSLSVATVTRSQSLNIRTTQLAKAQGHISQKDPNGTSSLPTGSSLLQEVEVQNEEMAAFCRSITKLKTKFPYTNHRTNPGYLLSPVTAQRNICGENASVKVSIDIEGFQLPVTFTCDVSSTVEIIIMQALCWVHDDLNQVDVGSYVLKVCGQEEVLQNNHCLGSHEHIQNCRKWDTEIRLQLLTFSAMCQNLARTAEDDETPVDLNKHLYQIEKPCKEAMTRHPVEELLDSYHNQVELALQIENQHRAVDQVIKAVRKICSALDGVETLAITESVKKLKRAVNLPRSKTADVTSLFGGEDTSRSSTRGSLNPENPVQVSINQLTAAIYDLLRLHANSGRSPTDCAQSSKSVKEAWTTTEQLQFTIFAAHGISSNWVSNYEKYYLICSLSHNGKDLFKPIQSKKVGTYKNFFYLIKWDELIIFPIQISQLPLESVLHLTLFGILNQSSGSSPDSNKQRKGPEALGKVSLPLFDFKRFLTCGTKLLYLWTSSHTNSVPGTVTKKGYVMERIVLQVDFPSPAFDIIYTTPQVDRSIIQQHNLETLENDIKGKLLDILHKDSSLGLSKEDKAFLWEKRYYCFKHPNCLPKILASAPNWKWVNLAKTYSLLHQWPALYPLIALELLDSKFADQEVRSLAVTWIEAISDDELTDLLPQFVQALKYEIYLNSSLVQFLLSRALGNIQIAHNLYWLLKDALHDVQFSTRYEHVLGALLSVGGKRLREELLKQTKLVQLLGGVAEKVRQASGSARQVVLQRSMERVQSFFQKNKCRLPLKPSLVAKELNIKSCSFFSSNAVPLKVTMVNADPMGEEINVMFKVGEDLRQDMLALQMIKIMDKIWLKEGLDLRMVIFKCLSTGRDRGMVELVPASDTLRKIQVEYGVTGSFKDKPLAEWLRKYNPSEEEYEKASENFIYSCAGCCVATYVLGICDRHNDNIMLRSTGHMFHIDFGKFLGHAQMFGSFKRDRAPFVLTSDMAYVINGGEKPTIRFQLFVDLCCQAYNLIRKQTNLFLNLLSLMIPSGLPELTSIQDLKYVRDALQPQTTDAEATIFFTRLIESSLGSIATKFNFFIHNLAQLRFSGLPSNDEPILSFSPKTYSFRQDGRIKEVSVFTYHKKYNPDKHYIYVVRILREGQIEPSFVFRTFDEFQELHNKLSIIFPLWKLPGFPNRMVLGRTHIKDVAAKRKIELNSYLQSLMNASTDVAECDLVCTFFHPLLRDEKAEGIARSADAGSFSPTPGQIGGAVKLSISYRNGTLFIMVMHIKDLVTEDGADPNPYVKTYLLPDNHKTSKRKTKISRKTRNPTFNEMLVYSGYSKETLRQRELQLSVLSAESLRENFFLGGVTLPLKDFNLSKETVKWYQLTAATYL
Chain of PI3K (p110α (H1047R)/p85α) (P42336 whole entry H1047R): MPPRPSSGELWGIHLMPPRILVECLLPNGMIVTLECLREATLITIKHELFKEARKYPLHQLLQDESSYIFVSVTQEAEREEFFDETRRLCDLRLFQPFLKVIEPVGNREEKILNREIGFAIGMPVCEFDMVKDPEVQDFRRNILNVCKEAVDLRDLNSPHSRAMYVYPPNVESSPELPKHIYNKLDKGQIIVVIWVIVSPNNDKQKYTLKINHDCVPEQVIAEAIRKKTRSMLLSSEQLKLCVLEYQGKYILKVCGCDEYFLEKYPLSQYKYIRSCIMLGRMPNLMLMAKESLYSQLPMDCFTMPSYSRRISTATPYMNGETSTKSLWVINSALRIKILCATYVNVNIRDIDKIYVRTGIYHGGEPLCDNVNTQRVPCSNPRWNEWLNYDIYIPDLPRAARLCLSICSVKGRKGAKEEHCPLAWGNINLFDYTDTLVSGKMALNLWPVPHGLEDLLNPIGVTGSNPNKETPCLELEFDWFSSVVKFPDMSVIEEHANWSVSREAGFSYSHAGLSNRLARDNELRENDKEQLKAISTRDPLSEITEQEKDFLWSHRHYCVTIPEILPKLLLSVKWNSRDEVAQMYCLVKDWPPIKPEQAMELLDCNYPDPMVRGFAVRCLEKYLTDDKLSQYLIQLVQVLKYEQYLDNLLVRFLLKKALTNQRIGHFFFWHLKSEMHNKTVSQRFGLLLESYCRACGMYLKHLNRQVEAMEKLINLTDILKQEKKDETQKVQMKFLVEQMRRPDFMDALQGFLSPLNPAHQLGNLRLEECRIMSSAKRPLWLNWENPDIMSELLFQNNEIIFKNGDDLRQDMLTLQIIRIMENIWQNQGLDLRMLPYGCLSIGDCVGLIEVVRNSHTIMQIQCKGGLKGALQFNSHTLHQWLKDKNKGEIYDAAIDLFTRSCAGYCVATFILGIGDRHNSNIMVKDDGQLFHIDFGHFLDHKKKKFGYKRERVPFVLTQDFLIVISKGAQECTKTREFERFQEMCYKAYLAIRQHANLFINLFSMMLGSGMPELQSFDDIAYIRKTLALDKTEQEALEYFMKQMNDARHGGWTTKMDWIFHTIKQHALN
Chain of PI3K (p110α (H1047R)/p85α) (P27986 whole entry partner): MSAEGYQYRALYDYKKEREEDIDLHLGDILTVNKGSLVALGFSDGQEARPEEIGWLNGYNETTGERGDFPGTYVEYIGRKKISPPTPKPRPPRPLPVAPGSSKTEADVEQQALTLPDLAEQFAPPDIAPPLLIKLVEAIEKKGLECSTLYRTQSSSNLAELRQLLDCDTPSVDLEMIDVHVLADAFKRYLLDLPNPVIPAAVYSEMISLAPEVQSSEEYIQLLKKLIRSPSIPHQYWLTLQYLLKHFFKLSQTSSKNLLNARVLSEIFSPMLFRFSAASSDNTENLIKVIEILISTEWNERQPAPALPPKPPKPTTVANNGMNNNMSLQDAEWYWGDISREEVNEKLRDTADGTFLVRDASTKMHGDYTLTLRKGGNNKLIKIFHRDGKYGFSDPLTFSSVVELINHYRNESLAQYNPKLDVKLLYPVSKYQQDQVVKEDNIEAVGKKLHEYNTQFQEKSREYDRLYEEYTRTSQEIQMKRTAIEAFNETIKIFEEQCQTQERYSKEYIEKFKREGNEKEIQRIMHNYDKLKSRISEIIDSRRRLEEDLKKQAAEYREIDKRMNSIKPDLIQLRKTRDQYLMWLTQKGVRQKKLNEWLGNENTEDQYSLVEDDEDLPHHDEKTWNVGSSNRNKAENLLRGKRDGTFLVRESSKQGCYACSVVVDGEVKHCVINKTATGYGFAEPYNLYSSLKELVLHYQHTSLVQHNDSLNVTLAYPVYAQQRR
Chain of PI3K (p110α/p65α) (P42336 whole entry, species assumed): as the sequence (P42336 whole entry H1047R) above, with R1047H counted along it
Chain of PI3Kα (p110α/p85α) (P42336 whole entry, species assumed): as the sequence (P42336 whole entry H1047R) above, with R1047H counted along it
Chain of PI3Kα (p110α/p85α) (P27986 whole entry partner, species assumed): as the sequence (P27986 whole entry partner) above
Chain of PI3Kg (p110γ) (P48736 whole entry, species assumed): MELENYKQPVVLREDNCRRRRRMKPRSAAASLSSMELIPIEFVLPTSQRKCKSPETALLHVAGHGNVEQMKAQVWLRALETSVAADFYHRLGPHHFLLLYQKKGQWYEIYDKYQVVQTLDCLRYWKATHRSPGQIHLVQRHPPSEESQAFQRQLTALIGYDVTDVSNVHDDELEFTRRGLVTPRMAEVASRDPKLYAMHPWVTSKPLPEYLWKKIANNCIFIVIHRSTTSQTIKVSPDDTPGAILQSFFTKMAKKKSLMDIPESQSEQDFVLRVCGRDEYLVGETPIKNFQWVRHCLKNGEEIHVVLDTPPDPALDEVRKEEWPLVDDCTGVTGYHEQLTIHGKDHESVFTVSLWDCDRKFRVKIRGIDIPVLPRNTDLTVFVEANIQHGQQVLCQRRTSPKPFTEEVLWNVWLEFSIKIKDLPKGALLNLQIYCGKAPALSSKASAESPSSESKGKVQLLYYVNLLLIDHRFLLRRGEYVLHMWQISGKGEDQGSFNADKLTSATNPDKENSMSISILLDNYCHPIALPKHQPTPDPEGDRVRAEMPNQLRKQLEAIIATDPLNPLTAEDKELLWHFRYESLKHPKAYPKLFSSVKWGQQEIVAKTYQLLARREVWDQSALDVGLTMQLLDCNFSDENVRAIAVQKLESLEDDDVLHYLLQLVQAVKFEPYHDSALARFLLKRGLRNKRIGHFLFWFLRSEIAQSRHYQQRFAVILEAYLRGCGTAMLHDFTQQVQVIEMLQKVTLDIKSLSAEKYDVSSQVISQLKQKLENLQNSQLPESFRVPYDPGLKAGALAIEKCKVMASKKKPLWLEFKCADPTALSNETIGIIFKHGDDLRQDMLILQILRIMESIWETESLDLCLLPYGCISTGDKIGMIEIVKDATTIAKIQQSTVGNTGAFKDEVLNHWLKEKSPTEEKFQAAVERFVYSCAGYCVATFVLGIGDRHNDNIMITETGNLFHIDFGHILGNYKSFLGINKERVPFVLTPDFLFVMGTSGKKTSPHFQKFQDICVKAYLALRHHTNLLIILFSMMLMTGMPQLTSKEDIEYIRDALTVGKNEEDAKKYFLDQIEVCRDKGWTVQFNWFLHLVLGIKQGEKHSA
Chain of PI3K (p110α (E542K)/p85α) (P42336 whole entry E542K): as the sequence (P42336 whole entry H1047R) above, with E542K, R1047H counted along it
Chain of PI3K (p110α (E542K)/p85α) (P27986 whole entry partner): as the sequence (P27986 whole entry partner) above
Chain of PI3K (p110α (E545K)/p85α) (P42336 whole entry E545K): as the sequence (P42336 whole entry H1047R) above, with E545K, R1047H counted along it
Chain of PI3K (p110α (E545K)/p85α) (P27986 whole entry partner): as the sequence (P27986 whole entry partner) above

IC50 (VPS34) [nM]	inhibition at 1 µM (PI3Kα (p110α/p85α)) [%]	inhibition at 1 µM (PI3K (p110α/p65α)) [%]	inhibition at 1 µM [1] [%]	inhibition at 1 µM (PI3Kb (p110β/p85α)) [%]	inhibition at 1 µM [2] [%]	inhibition at 1 µM (PI3Kd (p110δ/p85α)) [%]	inhibition at 1 µM (PI3Kg (p110γ)) [%]	inhibition at 1 µM [3] [%]	inhibition at 1 µM (PI3KC2α) [%]	Compound
≤ 100	-3	-7	0	-9	3	-2	11	-5	-1	COC(=O)Nc1cc(-c2cc(N3CCCC[C@@H]3C(F)(F)F)[nH]c(=O)c2)c(N)cn1 [Example 14]
100 to 500	-24	-24	14	-5	-8	-2	29	-2	-11	O=C(Nc1cc(-c2cc(N3CCCC[C@@H]3C(F)(F)F)[nH]c(=O)c2)c(Cl)cn1)C1CC1 [Example 16]
100 to 500	4	7	-11	-1	1	2	-8	1	0	Cc1cnc(NC(=O)CC2CNC2)cc1-c1cc(N2CCCC[C@@H]2C(F)(F)F)[nH]c(=O)c1 [Example 27]
100 to 500	3	-4	-4	-3	-1	4	-8	-4	2	Cc1cnc(NC(=O)CC2CNCC2(F)F)cc1-c1cc(N2CCCC[C@@H]2C(F)(F)F)[nH]c(=O)c1 (stereo partly drawn) [Example 22]
100 to 500	4	0	-7	-7	-1	-7	-4	1	-5	Cc1cnc(NC(=O)CCN(C)C)cc1-c1cc(N2CCCC[C@@H]2C(F)(F)F)[nH]c(=O)c1 [Example 25]
500 to 1000	-2	-26	19	-14	3	-2	5	4	-3	COC(=O)Nc1ncc(C)c(-c2cc(-c3cccnc3C(F)(F)F)[nH]c(=O)c2)n1 [Example 6]
100 to 500	-1	-6	-17	-9	-2	-9	-7	-4	2	CNCC(=O)Nc1cc(-c2cc(N3CCCC[C@@H]3C(F)(F)F)[nH]c(=O)c2)c(C)cn1 [Example 24]
100 to 500	-2	-11	-11	-9	-3	-4	-10	-5	5	COC(=O)Nc1cc(-c2cc(N3CCCC[C@@H]3C)[nH]c(=O)c2)c(C)cn1 [Example 20]
100 to 500	-31	-3	-3	0	-5	6	-10	-20	3	Cc1cnc(NC(=O)OC2CC3(CNC3)C2)cc1-c1cc(N2CCCC[C@@H]2C(F)(F)F)[nH]c(=O)c1 [Example 28]

From patent publication US20250236609A1, “VPS34 INHIBITORS AND METHODS OF USE THEREOF” (Deciphera Pharmaceuticals, LLC, priority 2023, published 2025)
